Active and inactive are the calls of the source. Bounds are passed on as bounds.

Assay [1] deals with ATP-dependent molecular chaperone HSP82 (Candida albicans (strain WO-1) (Yeast), UniProt C4YTQ8). Put plainly: loss of DOC-induced GRE-beta-galactosidase reporter signal, dose response, Hsp90 inhibitor project, S. cerevisiae, luminescence (AID 2400).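 Also: beta-galactosidase luminescence from glucocorticoid response element reporter as proxy for Hsp90 function; inhibitor potency where signal loss means Hsp90 inhibition.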 In kind it is functional, cell-based.
The subject of assay [2] is Streptococcus sp. 'group A'. The experiment in a line: growth inhibition of control SK(-) GAS strain, dose response, counter-screen for streptokinase expression inhibitor project, luminescence, kanamycin, BacTiterGlo, confirmation (AID 1900). In kind it is functional, organism-based. (Counterscreens check selectivity or assay interference.)
The subject of another assay is INS1. Put plainly: beta cell apoptosis inhibitors, cytokine rescue, dose response, luminescence, retest (AID 449756).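 Also: cell death triggered by IL-1 beta plus TNF-alpha plus IFN-gamma mixture; protective hits raise ATP signal compared with cytokine alone wells.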 The settings on record: Rattus norvegicus. In kind it is functional, cell-based.
Assay [3] can be described thus: NIH-3T3 fibroblast cytotoxicity, dose response, cytotoxicity control, cell-based, fluorescence, Alamar Blue, secondary assay (AID 2327).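 Also: NIH-3T3 mouse fibroblasts cultured with fluconazole at 8 µg/mL.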 In kind it is functional.
A short description of assay [4]: Luminescence Cell-Based Dose Response HTS to Identify Inhibitors of 5'UTR Stem-Loop Driven Prion Protein mRNA Translation in H4 Neuroglioblastoma Cells. [Related pubchem assays: 1827 (Project Summary), 1813 (Primary HTS)]. In kind it is functional.
Assay [5] can be described thus: inhibitors of SNCA 5'UTR-driven reporter translation, confirmation, H4 neuroglioma cells, luminescence (AID 1988). Format: functional, cell-based.
Assay [6] in a line: inhibitors of firefly luciferase expression or activity, dose response, H4 neuroglioma cells, luminescence (AID 1990). In kind it is functional, cell-based.
In another assay the test system is Streptococcus. The experiment in a line: Group A Streptococcus viability loss, dose response, counter-screen for streptokinase expression inhibitor project, luminescence, BacTiterGlo (AID 1915).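 Also: potency for reduction of bacterial viability or growth.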 In kind it is functional, organism-based.
Assay [7] in a line: C. albicans growth with fluconazole, confirmation, fluorescence, retest (AID 2467). Format: functional, cell-based.
Assay [8] has as its target T1, Serine/threonine-protein phosphatase (Candida dubliniensis (strain CD36 / CBS 7987 / NCPF 3949 / NRRLY-17841) (Yeast), UniProt B9W6M3).
T1 sequence (B9W6M3 whole entry): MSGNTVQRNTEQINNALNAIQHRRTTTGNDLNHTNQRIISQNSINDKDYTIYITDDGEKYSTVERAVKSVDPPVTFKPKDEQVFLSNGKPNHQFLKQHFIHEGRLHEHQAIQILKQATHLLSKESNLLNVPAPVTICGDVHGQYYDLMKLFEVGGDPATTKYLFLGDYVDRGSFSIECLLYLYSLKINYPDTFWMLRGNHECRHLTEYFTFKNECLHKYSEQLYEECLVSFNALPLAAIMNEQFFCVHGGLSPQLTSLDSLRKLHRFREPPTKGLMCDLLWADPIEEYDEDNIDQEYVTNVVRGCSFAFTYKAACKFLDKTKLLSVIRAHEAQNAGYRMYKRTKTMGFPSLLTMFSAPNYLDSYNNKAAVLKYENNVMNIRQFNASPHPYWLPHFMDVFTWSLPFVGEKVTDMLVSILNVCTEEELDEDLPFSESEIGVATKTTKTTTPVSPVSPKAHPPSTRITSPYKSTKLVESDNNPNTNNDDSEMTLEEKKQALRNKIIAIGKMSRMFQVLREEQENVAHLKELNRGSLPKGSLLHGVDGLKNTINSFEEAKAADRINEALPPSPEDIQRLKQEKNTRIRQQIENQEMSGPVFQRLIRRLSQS
Put plainly: Fluorescence Cell-Based Secondary Assay to Identify Inhibitors of Calcineurin. [Related pubchem assays (depositor defined):AID1979, AID2007]. In kind it is functional.

Assay [9] is described as follows: microbe, parasite or virus in culture. In kind it is functional. As to conditions: Mycobacterium tuberculosis.
The target in assay [10] is T1, Serine/threonine-protein phosphatase. Put plainly: calcineurin pathway inhibitors in yeast reporter, dose response, S. cerevisiae, CDRE-lacZ, luminescence, secondary (AID 2388).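 Also: yeast reporter cells carrying a calcineurin-responsive lacZ construct stimulated with calcium chloride; luminescent beta-galactosidase reporter signal in whole cells rather than isolated phosphatase activity; potency for inhibition where a drop in reporter signal means calcineurin blockade.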 Format: functional, cell-based.
For assay [11], the system named is HEK293. The experiment in a line: cells. The settings on record: Homo sapiens.
Assay [12] concerns HEK293. The experiment in a line: cells. As to conditions: Homo sapiens. This is another data set of the same source.
Assay [13] is described as follows: inhibitors of HIV Env-driven cell fusion, dose response, cherry-pick (AID 652057). Format: functional, cell-based.
Assay [14] in a line: luciferase reporter signal reduction – luminescence, H4-C neuroglioblastoma cells, dose response (AID 2458).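 Also: H4 neuroglioblastoma cells stably carrying a luciferase reporter gene fusion.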 In kind it is functional, cell-based. (In a reporter assay the amount or activity of a reporter protein is the signal.)
The target of assay [15] is T2, Microphthalmia-associated transcription factor (Homo sapiens, UniProt O75030).
T2 sequence (O75030 whole entry): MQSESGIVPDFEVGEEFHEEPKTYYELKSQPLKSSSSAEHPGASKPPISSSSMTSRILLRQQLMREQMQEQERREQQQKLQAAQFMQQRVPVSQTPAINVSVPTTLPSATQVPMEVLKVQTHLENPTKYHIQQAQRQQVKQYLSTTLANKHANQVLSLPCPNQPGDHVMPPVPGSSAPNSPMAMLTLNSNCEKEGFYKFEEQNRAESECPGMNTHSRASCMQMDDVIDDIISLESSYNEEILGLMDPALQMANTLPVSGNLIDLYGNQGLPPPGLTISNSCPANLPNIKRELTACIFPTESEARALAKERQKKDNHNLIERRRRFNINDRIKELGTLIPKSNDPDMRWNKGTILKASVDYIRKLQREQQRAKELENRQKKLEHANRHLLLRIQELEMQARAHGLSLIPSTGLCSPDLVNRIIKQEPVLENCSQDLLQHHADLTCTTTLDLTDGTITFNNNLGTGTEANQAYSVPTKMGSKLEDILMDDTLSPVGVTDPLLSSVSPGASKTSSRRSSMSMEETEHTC
Put plainly: TRPM1 promoter luciferase signal decrease, dose response, MITF inhibitor project, cell-based, SK-MEL-5, cherry-picked, set 3 (AID 493073).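 Also: SK-MEL-5 melanoma cells with luciferase driven by the MITF target TRPM1 promoter.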 Format: functional.

The target in assay [16] is Luciferin 4-monooxygenase (Photinus pyralis, UniProt P08659). The experiment in a line: Counter Screen for Luciferase-based Assay Positives. [Related pubchem assays: 620, 618, 411 ].
For a further assay, the system named is HT-1080. The experiment in a line: cytotoxicity in HT1080 fibrosarcoma cells, cell-based, fluorescence readout (AID 620). Format: functional. The settings on record: Homo sapiens.
Another assay deals with Jurkat. The experiment in a line: antigen receptor-induced NF-kB inhibitors, dose response, Jurkat, luciferase reporter, luminescence, B- and T-cell (AID 489004).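 Also: NF-kB luciferase reporter Jurkat cells stimulated with PMA plus ionomycin.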 As to conditions: Homo sapiens. In kind it is functional, cell-based.
Assay [17] can be described thus: ZM109 Env clade C HIV-1 fusion inhibitors, dose response, HeLa effector, CEM target cells, luciferase, cherry-pick (AID 652058). In kind it is functional, cell-based.
Assay [18] in a line: inhibitors of clade B AD8 Env fusion, dose response, cell-based, cherry-pick (AID 652062).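 Also: luciferase signal from cell-cell fusion driven by HIV-1 clade B AD8 Env; potency is for inhibitors of fusion seen as a drop in luminescence.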 Format: functional.
The next assay is described as follows: cells. Format: functional, cell-based.
The target of assay [19] is T3, Heat shock factor protein 1 (Mus musculus, UniProt P38532).
T3 sequence (P38532 whole entry): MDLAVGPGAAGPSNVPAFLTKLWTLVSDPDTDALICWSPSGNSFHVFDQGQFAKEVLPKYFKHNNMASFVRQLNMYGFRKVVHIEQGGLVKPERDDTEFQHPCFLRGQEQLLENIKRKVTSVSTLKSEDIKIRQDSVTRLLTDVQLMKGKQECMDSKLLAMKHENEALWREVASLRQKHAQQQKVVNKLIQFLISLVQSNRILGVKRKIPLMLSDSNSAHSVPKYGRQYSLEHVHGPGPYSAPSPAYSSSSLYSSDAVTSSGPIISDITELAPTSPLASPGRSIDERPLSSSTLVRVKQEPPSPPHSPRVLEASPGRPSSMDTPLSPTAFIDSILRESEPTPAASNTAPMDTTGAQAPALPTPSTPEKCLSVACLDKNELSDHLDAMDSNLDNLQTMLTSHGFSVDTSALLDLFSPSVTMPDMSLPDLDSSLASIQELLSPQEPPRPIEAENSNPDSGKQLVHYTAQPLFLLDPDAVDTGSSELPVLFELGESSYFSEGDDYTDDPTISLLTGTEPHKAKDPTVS
The experiment in a line: inhibition of MG132-induced HSE-luciferase signal, confirmation, cell-based, NIH3T3, luminescence, dose retest (AID 2382).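 Also: NIH3T3 fibroblasts with HSF1-driven luciferase reporter stressed by proteasome inhibitor MG132; luminescence from HSF1-driven luciferase expression after 8 hours of MG132 stress.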 In kind it is functional.

Assay [20] is described as follows: inhibitors of SNCA 5'UTR-driven translation, confirmation, luminescence, H4 neuroglioblastoma cells, dose confirmation (AID 2454).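 Also: H4 neuroglioblastoma cells carrying an alpha-synuclein 5'UTR luciferase reporter; potency for inhibition of the luciferase signal.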 In kind it is functional, cell-based.
A short description of assay [21]: off-target signal loss in HeLa-CEM21 co-culture – HeLa F-luc CTL cells, cherry-picked, counter-screen for HIV-1 Env fusion inhibitor project, dose response (AID 652040).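 Also: potency for signal decrease marking cytotoxic or nonspecific inhibition.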 Format: functional, cell-based.
A short description of assay [22]: cytotoxicity in HEK-293T NF-kB-Luc cells, dose response, cytotoxicity control for B/T-cell NF-kB inhibitor project, cell-based, uHTS hits (AID 489019).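 Also: IC50 reflects cytotoxicity as loss of cell viability.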 Format: functional.
The target of another assay is Protein Wnt-3a (Mus musculus, UniProt P27467). The experiment in a line: Wnt3a-driven reporter signaling inhibition, dose response, selectivity assay for Gli-SUFU antagonist project, Wnt-LIGHT cells, luminescence (AID 651570).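 Also: Wnt-LIGHT reporter cells stimulated with conditioned medium from Wnt3a-producing cells.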 Format: functional. The settings on record: read-out: IC50_Mean.
The nature of assay [23]: Shn3 3'UTR reporter inhibitors, dose response, cell-based, Clone20 osteoblasts, firefly luciferase, cherry-picked (AID 624132).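 Also: firefly luciferase luminescence from reporter carrying the Shn3 3'UTR in osteoblasts.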 Format: functional.
A short description of assay [24]: control 3'UTR Renilla luciferase suppression, dose response, counter-screen for Shn3 inhibitor project, cell-based, Clone20-Shn3RL, cherry-picked (AID 624133). In kind it is functional.
Assay [25] has as its target T4, COUP transcription factor 2 (Homo sapiens, UniProt P24468).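 Also: HEK293 cells transiently cotransfected with COUP-TFII expression vector and reporter; luciferase reporter luminescence driven by COUP-TFII from the pX2-168 reporter plasmid.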
T4 sequence (P24468 whole entry): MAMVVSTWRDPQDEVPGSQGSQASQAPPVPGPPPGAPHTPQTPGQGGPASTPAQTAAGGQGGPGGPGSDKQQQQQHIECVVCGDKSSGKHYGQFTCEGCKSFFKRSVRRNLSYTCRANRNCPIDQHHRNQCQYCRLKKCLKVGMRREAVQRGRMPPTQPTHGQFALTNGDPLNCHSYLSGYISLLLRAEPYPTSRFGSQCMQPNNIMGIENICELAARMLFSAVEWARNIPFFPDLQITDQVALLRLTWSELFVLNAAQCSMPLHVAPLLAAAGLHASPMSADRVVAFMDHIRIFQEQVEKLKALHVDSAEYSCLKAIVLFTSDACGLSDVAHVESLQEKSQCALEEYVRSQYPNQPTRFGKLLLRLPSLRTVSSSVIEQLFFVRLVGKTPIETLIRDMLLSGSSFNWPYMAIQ
Put plainly: Luminescence-based cell-based high throughput dose response assay to identify inhibitors of COUP-TFII (NR2F2). In kind it is functional.

Luciferin 4-monooxygenase, sequence (P08659 whole entry): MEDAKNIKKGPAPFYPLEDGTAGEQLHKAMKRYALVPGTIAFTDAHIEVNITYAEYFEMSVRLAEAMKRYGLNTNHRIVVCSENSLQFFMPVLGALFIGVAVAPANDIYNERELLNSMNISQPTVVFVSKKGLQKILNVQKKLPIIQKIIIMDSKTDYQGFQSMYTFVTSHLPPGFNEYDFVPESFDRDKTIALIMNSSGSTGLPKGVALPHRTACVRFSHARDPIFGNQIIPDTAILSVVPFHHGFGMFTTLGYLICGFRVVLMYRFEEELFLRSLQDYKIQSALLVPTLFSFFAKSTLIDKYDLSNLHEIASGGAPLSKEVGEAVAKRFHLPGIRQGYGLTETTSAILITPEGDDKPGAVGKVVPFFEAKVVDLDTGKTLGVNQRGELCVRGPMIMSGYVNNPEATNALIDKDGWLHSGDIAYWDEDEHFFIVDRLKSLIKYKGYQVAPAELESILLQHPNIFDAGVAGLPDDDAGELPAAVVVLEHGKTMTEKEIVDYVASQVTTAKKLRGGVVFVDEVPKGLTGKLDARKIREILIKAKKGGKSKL
Protein Wnt-3a, sequence (P27467 whole entry): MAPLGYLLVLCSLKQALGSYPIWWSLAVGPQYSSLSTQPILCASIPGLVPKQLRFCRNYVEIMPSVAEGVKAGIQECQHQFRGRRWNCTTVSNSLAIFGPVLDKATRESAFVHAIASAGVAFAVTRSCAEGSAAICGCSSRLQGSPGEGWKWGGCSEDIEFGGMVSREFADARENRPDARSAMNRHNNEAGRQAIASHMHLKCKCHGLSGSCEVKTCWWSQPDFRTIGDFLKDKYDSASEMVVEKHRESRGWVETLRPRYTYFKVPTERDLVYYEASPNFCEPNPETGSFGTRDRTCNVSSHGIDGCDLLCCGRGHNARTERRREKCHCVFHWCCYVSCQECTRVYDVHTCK
ATP-dependent molecular chaperone HSP82, sequence (C4YTQ8 whole entry): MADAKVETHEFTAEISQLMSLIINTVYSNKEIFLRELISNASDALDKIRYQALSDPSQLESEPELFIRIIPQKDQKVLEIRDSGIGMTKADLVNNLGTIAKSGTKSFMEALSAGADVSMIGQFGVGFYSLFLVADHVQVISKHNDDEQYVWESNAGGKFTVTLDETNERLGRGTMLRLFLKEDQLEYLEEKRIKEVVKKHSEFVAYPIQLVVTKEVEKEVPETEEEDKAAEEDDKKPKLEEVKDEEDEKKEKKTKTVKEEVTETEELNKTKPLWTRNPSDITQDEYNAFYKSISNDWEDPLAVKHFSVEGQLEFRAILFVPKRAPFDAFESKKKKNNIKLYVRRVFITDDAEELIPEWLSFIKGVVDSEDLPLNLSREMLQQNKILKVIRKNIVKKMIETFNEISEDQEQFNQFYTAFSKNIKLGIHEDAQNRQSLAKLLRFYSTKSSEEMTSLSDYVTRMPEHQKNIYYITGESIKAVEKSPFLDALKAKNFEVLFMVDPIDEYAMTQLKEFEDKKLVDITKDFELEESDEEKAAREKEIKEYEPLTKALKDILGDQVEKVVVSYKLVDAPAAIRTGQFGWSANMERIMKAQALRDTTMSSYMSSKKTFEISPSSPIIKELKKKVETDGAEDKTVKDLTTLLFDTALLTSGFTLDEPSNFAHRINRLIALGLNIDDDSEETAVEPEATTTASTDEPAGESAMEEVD

With `CC(C)COCc1ccc(O)c2ncccc12`, the EC50 – broadly, the concentration giving half of the maximal effect – is > 150 µM (inactive) in [1]; 1.67 µM (active) in assay [2]; 31.8 µM (active) in assay [3]; 10.9 µM (active) in assay [4]; 9.38 µM (active) in assay [5]; 12.1 µM (active) in assay [6]. The EC50 in the assay on Streptococcus is 5.43 µM (active); in [7], 0.294 µM (active); in [8], > 285 µM (inactive); in assay [10], > 180 µM (inactive). For the same compound, in the assay with INS1, the concentration at half-maximal activity (AC50) (in general, the midpoint of the concentration-response curve, whichever way the signal moves) was 2.35 µM (active). In [9], the CC50 was 10.2 µM (active).
`Cc1cc(NC(=O)CSc2nc(C(C)C)nc3sc(C)c(C)c23)no1`: the EC50 with HEK293 [11] and in the assay on HEK293 [12] was > 59.7 µM (inactive) in each case.
`CC(C)(C)c1ccc(C(=O)Nc2ccc(CC(=O)O)cc2)o1`: the half-maximal activity concentration (AC50) in [13] is 0.392 µM (active); in assay [15], 0.329 µM (active); in [17], < 0.26 µM (active); in assay [18] it was < 0.26 µM (active); in [21], 0.558 µM (active). Besides, the EC50 in [14] is 0.106 µM (active); in assay [16] it was 0.57 µM (active); with HT-1080, > 50 µM (not active); in [5], < 0.1 µM (active); in [6] it was < 0.1 µM (active); in the assay “cells”, 0.344 µM (active). For the same compound, the EC50 was < 0.16 µM (active) in assay [19] and 0.113 µM (active) in assay [20]. Also, the values for the IC50 (in the assay with Jurkat; in [22]) were < 0.16 µM (active) and > 80 µM (inactive), respectively.
`CCOC(=O)C1CCCN(S(=O)(=O)c2ccc(S(=O)(=O)N(CC)CC)cc2)C1` (stereo unspecified): the IC50 was 0.236 µM (active) on Protein Wnt-3a, > 80 µM (inactive) in the assay on Jurkat, 4.75 µM (active) in assay [25] and > 80 µM (inactive) in assay [22]. In addition, the values for the half-maximal activity concentration (AC50) (in the assay on INS1; in assay [23]; in assay [24]) were 2.6 µM (active), 0.512 µM (active) and 0.801 µM (active), respectively.

(Values after ChEMBL document CHEMBL1201862, “PubChem BioAssay data set” (2004).)
